# Source: patent US20110071197A1, “BIS-ARYL COMPOUNDS FOR USE AS MEDICAMENTS” (priority 2008, published 2011)
# Molecular target: T1, Recombinant human LTC4 synthase (Homo sapiens, UniProt Q16873)
# T1 construct: made in house; host or cells: Pichia pastoris
# T1 sequence (Q16873 1-150): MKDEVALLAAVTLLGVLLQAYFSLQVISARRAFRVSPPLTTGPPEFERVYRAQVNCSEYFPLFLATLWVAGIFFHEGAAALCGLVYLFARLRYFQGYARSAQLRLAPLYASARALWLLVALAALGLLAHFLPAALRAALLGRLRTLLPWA
# Test: LTC4 synthase in vitro assay (HTRF detection of LTC4)
# Assay type: biochemical
# Details: total concentration of title compound in the assay 10 μM; HTRF method
# Method: Alternatively HTRF detection of LTC4 can be used:
# In the assay, LTC4 synthase catalyses the reaction where the substrate LTA4 is converted to LTC4. Recombinant human LTC4 synthase is expressed in Piccia pastoralis and the purified enzyme is dissolved in 25 mM Tris-buffer pH 7.8 supplemented with 0.1 mM glutathione (GSH) and stored at −80° C. The assay is performed in phosphate buffered saline (PBS) pH 7.4 and 5 mM GSH in 384-well plates.
# The following is added chronologically to each well: • 1. 48 μl LTC4 synthase in PBS with 5 mM GSH. The total protein concentration in this solution is 0.5 μg/ml. • 2. […] Incubation of the plate at room temperature for 10 minutes. • 4. 1 μl LTA4 (final conc. 2.5 μM). • 5. Incubation of the plate at room temperature for 5 minutes. • 6. 10 μl of the incubation mixture is analysed using homogeneous time resolved fluorescent (HTRF) detection.
SMILES,inhibition at 10 µM [%],% inh. [%]
"CCCCc1ccc(C(=O)Nc2ccc(Oc3ccc(NC(=O)c4ccccc4)c(C(=O)O)c3)cc2)cc1 [8:12, 2-benzoylamino-5-[4-(4-butyl-benzoylamino)phenoxy]-benzoic acid]",99,
"CCCCc1ccc(C(=O)Nc2ccc(Oc3ccc(NS(=O)(=O)c4ccc(S(C)(=O)=O)cc4)cc3)cc2C(=O)O)cc1 [11:8, 2-(4-butylbenzoylamino)-5-[4-(4-methanesulfonylbenzene-sulfonylamino)phenoxy]benzoic acid]",98,
"O=C(NS(=O)(=O)c1ccc(F)cc1)c1cccc(Oc2ccc(Nc3ccc(Cl)cc3)c(C(=O)O)c2)c1 [20:8, 5-[3-(4-Fluorobenzenesulfonyl-aminocarbonyl)-phenoxy]-2-(4-chloro-phenylamino)-benzoic acid]",96,
"CC(C)Oc1ccc(C(=O)Nc2ccc(Oc3ccc(S(=O)(=O)Nc4ccc(F)c(F)c4)cc3)cc2C(=O)O)cc1 [25:6, 5-[4-(3,4-Difluoro-phenylsulfamoyl)-phenoxy]-2-(4-isopropoxybenzoyl-amino)benzoic acid]",100,
"O=C(NS(=O)(=O)c1cccc(Cl)c1F)c1cccc(Oc2ccc(Nc3ccc(Cl)cc3)c(C(=O)O)c2)c1 [20:3, 5-[3-(3-Chloro-2-fluoro-benzene-sulfonylaminocarbonyl)-phenoxy]-2-(4-chloro-phenylamino)-benzoic acid]",97,
"CCCCN(c1ccc(F)c(F)c1)c1ccc(Oc2ccc(Nc3ccc(F)c(F)c3)c(C(=O)O)c2)cc1C(=O)O [Example 24:3, 2-[butyl-(3,4-difluorophenyl)amino]-5-[3-carboxy-4-(3,4-difluorophenyl-amino)phenoxy]benzoic acid]",97,
"CCCCOc1ccc(S(=O)(=O)Nc2ccc(Oc3cccc(C(=O)NS(=O)(=O)c4ccc(F)cc4)c3)cc2C(=O)O)cc1 [20:7, 2-(4-Butoxy-benzenesulfonylamino)-5-[3-(4-fluoro-benzenesulfonylamino-carbonyl)-phenoxy]-benzoic acid]",94,
"CCOc1c(Cl)cc(C(F)(F)F)cc1C(=O)Nc1ccc(Oc2ccc(NC(=O)c3ccc(OC(C)C)cc3)c(C(=O)O)c2)cc1CC(=O)O [6:7, 5-[3-carboxymethyl-4-(3-chloro-2-ethoxy-5-tri-fluoromethylbenzoyl-amino)phenoxy]-2-(4-isopropoxybenzoyl-amino)benzoic acid]",100,
"CC(C)(C)c1ccc(C(=O)Nc2ccc(Oc3ccc(NC(=O)c4ccc(Cl)nc4Cl)c(C(=O)O)c3)cc2)cc1 [8:20, 5-[4-(4-tert-Butylbenzoyl-amino)phenoxy]-2-[(2,6-di-chloropyridine-3-carbonyl)-amino]benzoic acid]",96,
"CCCCc1ccc(C(=O)Nc2cccc(Oc3ccc(NC(=O)c4ccccc4OC)c(C(=O)O)c3)c2)cc1 [10:3, 5-[(3-(4-(1-butyl)benzoylamino)-phenoxy)]-2-(2-methoxybenzoyl-amino)benzoic acid]",95,
"CCCCc1ccc(C(=O)Nc2ccc(Oc3ccc(NC(=O)c4cc(OC)cc(OC)c4)cc3)cc2C(=O)O)cc1 [8:9, 2-(4-butylbenzoylamino)-5-[4-(3,5-dimethoxybenzoylamino)-phenoxy]benzoic acid]",88,
"CC(C)Oc1ccc(C(=O)Nc2ccc(Oc3ccc(NC(=O)c4ccc(Cl)cc4Cl)c(CC(=O)O)c3)cc2C(=O)O)cc1 [6:6, 5-[3-carboxymethyl-4-(2,4-dichloro-benzoyl-amino)phenoxy]-2-(4-isopropoxybenzoyl-amino)benzoic acid]",98,
"CCCCOc1ccc(S(=O)(=O)Nc2ccc(Oc3ccc(Nc4ccc(F)c(F)c4)cc3)cc2-c2nnn[nH]2)cc1 [Example 32:3, 4-Butoxy-N-[4-[4-(3,4-difluorophenyamino)phenoxy]-2-(tetrazol-5-yl)phenyl]-benzenesulfonamide]",,98
"COc1ccc(S(=O)(=O)N(C)c2ccc(Oc3ccc(NC(=O)c4cc(Cl)ccc4Cl)c(C(=O)O)c3)cc2)cc1 [11:15, 2-(2,5-Dichloro-benzoylamino)-5-{4-[(4-methoxy-benzenesulfonyl)-methyl-amino]-phenoxy}-benzoic acid]",99,
